Reference: ChEMBL document CHEMBL1201862, “PubChem BioAssay data set” (2004)
Active and inactive are the calls of the source.

Experiments:
[1] = biological target: T1, Tyrosine-protein phosphatase non-receptor type 7 (Homo sapiens, UniProt P35236); assay type: functional
T1 sequence (P35236 whole entry): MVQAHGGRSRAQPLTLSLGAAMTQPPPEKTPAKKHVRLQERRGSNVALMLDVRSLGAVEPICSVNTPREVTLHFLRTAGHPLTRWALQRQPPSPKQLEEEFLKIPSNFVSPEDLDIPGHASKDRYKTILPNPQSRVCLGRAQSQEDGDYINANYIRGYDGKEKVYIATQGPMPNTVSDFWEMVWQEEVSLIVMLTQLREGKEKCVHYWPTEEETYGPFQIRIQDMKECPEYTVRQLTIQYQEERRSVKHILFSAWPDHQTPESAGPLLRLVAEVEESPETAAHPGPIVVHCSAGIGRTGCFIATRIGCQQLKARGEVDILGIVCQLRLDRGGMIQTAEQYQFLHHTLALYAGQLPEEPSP

[2] = biological target: T2, Tyrosine-protein phosphatase non-receptor type 12 (Homo sapiens, UniProt Q05209); assay: SAR Selectivity Analysis of small molecule inhibitors of PEST using pCAP in a fluorescence assay. [Related pubchem assays (depositor defined):AID1779, AID1784, AID2135]; assay type: functional
T2 sequence (Q05209 whole entry): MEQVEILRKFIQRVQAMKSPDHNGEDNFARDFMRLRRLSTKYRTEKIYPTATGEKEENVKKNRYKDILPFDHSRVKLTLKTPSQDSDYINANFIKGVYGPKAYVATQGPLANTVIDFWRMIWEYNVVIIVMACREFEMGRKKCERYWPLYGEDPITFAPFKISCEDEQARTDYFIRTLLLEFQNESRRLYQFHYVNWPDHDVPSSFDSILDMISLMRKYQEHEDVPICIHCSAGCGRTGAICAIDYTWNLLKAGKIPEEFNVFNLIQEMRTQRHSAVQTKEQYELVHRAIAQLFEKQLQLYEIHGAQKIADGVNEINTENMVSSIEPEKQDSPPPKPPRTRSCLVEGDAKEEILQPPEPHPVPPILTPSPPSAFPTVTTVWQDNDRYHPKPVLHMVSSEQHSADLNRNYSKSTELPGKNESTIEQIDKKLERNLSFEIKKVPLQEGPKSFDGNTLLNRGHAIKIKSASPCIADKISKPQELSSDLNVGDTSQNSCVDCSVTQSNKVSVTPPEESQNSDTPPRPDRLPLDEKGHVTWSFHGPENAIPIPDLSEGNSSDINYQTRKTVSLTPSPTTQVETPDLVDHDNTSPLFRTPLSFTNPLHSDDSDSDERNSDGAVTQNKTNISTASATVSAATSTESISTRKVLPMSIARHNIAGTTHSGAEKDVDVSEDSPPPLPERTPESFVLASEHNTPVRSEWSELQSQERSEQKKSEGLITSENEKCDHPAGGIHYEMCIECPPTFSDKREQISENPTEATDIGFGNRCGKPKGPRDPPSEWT

[3] = HEK-293T cell viability reduction – luminescence, B-cell screen hits, cytotoxicity control for BCR NF-kB inhibitor project, dose response (AID 489021); assay type: functional, cell-based;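 note: HEK-293T cells carrying an NF-kB luciferase reporter; cells exposed to compound for about 14 hours before viability readout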
[4] = Luminescence Cell-Based Dose Response HTS to Identify Activators of Luciferase Translation or Activity in H4 […] Cells. [Related pubchem assays: 1829 (Project Summary), 1814 (Primary HTS)]; assay type: functional
[5] = HPDE-C7 pancreatic duct cell viability loss – fluorescence, HTS (AID 430); assay type: functional, cell-based; conditions: Homo sapiens
[6] = Trypanosoma cruzi growth suppression in host cells – NIH3T3 host cells, beta-gal luminescence, confirmation (AID 2044); assay type: functional, cell-based;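 note: intracellular parasites grown in NIH/3T3 mouse fibroblasts as host cells; luminescent beta-galactosidase reporter signal from transgenic T. cruzi replicating inside host cells; inhibitors lower the luminescence signal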
[7] = viability of HCT116 lacking mutant beta-catenin – cell-based, human colon tumor, dose response (AID 1045); assay type: functional;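 note: HCT116 colon tumor cells with beta catenin knocked out; cells exposed to compound for 60 hours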
[8] = test system: Vero; assay: viability of Vero cells under compound – cytotoxicity control for flavivirus capping enzyme inhibitors (AID 588742); assay type: functional; conditions: Chlorocebus sabaeus
[9] = biological target: T3, Apoptotic protease-activating factor 1 (Homo sapiens, UniProt O14727); assay type: functional
T3 sequence (O14727 whole entry): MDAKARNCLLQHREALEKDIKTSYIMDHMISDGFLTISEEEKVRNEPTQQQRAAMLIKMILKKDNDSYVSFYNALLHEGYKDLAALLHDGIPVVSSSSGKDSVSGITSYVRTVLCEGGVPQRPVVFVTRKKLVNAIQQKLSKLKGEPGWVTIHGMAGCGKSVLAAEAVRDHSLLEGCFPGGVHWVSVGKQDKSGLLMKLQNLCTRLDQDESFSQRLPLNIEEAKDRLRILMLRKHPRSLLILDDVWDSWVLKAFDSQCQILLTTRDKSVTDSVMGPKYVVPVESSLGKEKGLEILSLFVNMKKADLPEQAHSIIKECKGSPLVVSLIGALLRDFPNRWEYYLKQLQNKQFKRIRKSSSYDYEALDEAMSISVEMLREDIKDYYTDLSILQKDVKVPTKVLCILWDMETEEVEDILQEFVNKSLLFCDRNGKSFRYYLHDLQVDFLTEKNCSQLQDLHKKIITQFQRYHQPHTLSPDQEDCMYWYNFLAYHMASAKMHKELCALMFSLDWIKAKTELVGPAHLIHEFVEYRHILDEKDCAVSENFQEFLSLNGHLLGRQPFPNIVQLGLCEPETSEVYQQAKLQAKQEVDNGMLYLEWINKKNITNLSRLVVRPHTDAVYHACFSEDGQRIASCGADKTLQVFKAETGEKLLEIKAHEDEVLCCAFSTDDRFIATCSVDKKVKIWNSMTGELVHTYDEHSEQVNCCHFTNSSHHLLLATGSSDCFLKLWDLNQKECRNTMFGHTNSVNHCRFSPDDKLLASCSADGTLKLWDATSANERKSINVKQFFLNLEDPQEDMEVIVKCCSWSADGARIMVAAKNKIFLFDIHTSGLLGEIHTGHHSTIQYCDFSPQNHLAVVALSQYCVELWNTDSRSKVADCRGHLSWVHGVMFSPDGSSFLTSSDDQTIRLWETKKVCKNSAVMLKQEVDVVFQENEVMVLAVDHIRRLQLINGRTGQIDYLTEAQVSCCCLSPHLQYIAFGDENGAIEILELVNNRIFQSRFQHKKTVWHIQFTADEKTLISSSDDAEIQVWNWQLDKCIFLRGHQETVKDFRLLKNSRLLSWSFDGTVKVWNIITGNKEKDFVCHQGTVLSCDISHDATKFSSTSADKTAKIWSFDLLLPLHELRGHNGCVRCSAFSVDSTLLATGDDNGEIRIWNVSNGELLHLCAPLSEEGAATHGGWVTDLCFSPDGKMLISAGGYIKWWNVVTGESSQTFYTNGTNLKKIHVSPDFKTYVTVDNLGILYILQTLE

[10] = test system: INS1; assay: INS-1E survival protection against cytokine death – cell-based, luminescence, retest, dose response (AID 449756); assay type: functional; conditions: Rattus norvegicus, INS1;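 note: cell death triggered by IL-1 beta plus TNF-alpha plus IFN-gamma mixture; protective hits raise ATP signal compared with cytokine alone wells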

| Structure (SMILES) | IC50 [1] | IC50 [2] | IC50 [3] | EC50 [4] | EC50 [5] | EC50 [6] | EC50 [7] | CC50 [8] | IC50 [9] | AC50 [10] |
| --- | --- | --- | --- | --- | --- | --- | --- | --- | --- | --- |
| COc1ccc(/C=C2\SC(=S)N(CCC(=O)Nc3ccc(C(=O)O)cc3)C2=O)cc1OC | 3.78 µM (active) | 1.13 µM (active) | > 80 µM (inactive) | – | – | – | – | – | – | – |
| COc1ccc(Nc2ccc3c(c2)=NC2(CCCCC2)[N+]=3[O-])cc1 | – | – | – | > 120 µM (not active) | 6.89 µM (active) | 3.4 µM (active) | 1.89 µM (active) | 10.8 µM (active) | 12.2 µM (active) | 1.67 µM (active) |
